Test results reported in publication PMC9551036, “A selective and orally bioavailable VHL-recruiting PROTAC achieves SMARCA2 degradation in vivo” (Nature Communications, 2022).
“And” between values parts separate entries of the source, which are not always exact repeats. Equal entries are not always repeated. Where two headings read alike, the source gives them in different places.

Tests used:
[1] = target: VCB: PROTAC: SMARCA2^BD ternary complex (Homo sapiens, UniProt P40337+P51531); experiment: SPR ternary complex measurement, VCB immobilised, 10 µM SMARCA2^BD present; assay type: binding; parameters: P51531-2, residues 1373-1493 with additional N-terminal SM residues; His6 (TEV site) (N, cleaved yes); GST (TEV site) (N, cleaved yes); made in house; host or cells: SMARCA2^BD: Escherichia coli BL21(DE3); details: for Kd: SPR; for alpha: cooperativity, SMARCA2, ratio of KD values measured in the same run
Method: SPR data were acquired on Biacore 8K or T200 instruments (Cytiva). Target proteins were immobilised at 25 °C on CM5 chips by amine coupling (EDC/NHS, Cytiva) in HBS-P+ running buffer (pH 7.4), containing 2 mM TCEP. […] The reference surface was subsequently deactivated using 1 M ethanolamine. […] Biotinylated VCB was prepared as previously described[27]: in brief, the complex was mixed 1:1 with EZ-Link NHS–PEG4–biotin (Thermo Scientific) and incubated at room temperature for 1 h. Unreacted NHS-biotin was removed using a PD-10 desalting column (Cytiva) into 20 mM HEPES, pH 7.5, 150 mM sodium chloride and 1 mM DTT. The reference surface was generated by deactivating the EDC/NHS-treated surface with 1 M ethanolamine. All interaction experiments were done at 6 °C in running buffer (20 mM TRIS, pH 8.3, 150 mM potassium chloride, 2 mM magnesium chloride, 2 mM TCEP, 0.005% TWEEN 20, 1% dimethyl sulfoxide). For ternary complex measurements, a sensor chip surface with VCB immobilised was used (preparation as described above). Experiments were run in dual-inject mode with 10 µM SMARCA present during the injection and dissociation phase. Sensorgrams from reference surfaces and blank injections were subtracted from the raw data prior to data analysis using Biacore Insight software. Affinity and binding kinetic parameters were determined by global fitting using the 1:1 interaction model with a term for mass-transport included.

Caco-2 cell monolayer = experiment: Bidirectional permeability measurement in Caco-2 cells; assay type: in vitro ADME
Method: Bidirectional permeability of test compounds across a Caco-2 cell monolayer was measured as described[43] with a modification of preincubation time[44]: Briefly, Caco-2 cells were seeded onto Transwell inserts (#3379, Corning, Wiesbaden, Germany) at a density of 160000 cells/cm^2 and cultured in DMEM (high glucose) containing 10% fetal bovine serum for 14–21 days. Cells were incubated with culture media containing 1 µM test compound for 24 h. […] Samples were taken at different time points for up to 2 h. Test compound in the samples was quantified with LC-MS/MS. To elucidate the role of drug transporter P-gp in the transcellular transport, permeability measurement was performed in the absence and presence of the selective P-gp inhibitor zosuquidar (5 µM final concentration). Apparent permeability coefficients (Papp,AB, Papp,BA) were calculated as follows:1 Papp,AB=Q_AB/C0×s×t 2 Papp,BA=Q_BA/C0×s×t where Q is the amount of compound recovered in the receiver compartment after the incubation time t, C0 the initial compound concentration given to the donor compartment, and s the surface area of the Transwell inserts. Efflux ratio is calculated as the quotient of Papp,BA (mean of duplicate) to Papp,AB (mean of duplicate). […] In addition, Transepithelial electrical resistance (TEER) values were measured for each plate before the permeability assay. All three parameters (efflux of the reference substrates, Papp values of the low permeable compound, and TEER values) were used to ensure the quality of the assays.

[2] = test system: VCB: PROTAC: SMARCA2^BD ternary complex; experiment: TR-FRET ternary complex affinity and cooperativity, SMARCA2; assay type: binding, human; details: ratio TR-FRET EC50 / TR-FRET EC50 +VCB measured in the same run, SMARCA2BD
PBRM1BD5 [3] = experiment: TR-FRET ternary complex affinity and cooperativity, PBRM1; assay type: binding; details: ratio TR-FRET EC50 / TR-FRET EC50 +VCB measured in the same run, PBRM1BD5
PBRM1BD5 [4] = target: T1, PBRM1BD5 (Homo sapiens, UniProt P40337+Q86U86); experiment: as above; assay type: binding; details: TR-FRET competition for PBRM1BD5, + VCB; mean ± SD; read-out: TR-FRET Ternary PBRM1BD EC50 (PROTAC + VCB)
T1 construct: GST (TEV site) (N); His6 (TEV site) (N, cleaved yes); made in house; host or cells: PBRM1^BD5: Escherichia coli BL21(DE3)

Solubility testing = assay type: physicochemical; details: for solubility at 24 h: buffer, kinetic from dmso stock
Method: Dilution into a 1:1 mixture of acetonitrile and water was used as reference. After 24 h, the incubations were filtrated, and the filtrate was analyzed by LC-UV.

[5] = ternary complex with SMARCA2BD, mean ± SD
[6] = Modified Caco-2, a to b, + PGPi (Zosuquidar)

Chain of VCB: PROTAC: SMARCA2^BD ternary complex (Homo sapiens, UniProt P40337+P51531) (P40337 54-213): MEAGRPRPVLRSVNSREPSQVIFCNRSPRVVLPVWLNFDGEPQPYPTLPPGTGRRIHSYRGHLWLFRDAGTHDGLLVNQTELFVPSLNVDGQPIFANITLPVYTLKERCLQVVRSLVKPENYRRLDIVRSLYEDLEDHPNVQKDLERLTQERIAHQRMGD
Chain of VCB: PROTAC: SMARCA2^BD ternary complex (Homo sapiens, UniProt P40337+P51531) (Q15369 17-112 partner limits assumed): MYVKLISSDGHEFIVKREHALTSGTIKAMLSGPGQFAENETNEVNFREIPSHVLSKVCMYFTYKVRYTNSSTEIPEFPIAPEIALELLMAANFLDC
Chain of VCB: PROTAC: SMARCA2^BD ternary complex (Homo sapiens, UniProt P40337+P51531) (Q15370 1-104 partner limits assumed): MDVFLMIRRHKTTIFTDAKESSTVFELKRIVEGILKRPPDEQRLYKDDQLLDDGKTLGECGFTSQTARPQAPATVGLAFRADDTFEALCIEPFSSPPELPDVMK
Chain of VCB: PROTAC: SMARCA2^BD ternary complex (Homo sapiens, UniProt P40337+P51531) (P51531 1373-1493 isoform P51531-2): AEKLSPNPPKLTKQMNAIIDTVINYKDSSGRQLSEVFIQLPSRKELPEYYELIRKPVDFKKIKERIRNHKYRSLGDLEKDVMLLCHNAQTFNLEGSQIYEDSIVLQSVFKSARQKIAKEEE
T1 sequence (Q86U86 645-766): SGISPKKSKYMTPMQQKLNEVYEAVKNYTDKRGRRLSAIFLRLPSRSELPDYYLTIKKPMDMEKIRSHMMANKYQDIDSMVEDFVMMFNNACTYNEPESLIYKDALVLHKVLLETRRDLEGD
T1 sequence (P40337 54-213): as the sequence (P40337 54-213) above
T1 sequence (Q15369 17-112 partner): as the sequence (Q15369 17-112 partner limits assumed) above
T1 sequence (Q15370 1-104 partner): as the sequence (Q15370 1-104 partner limits assumed) above

Row | Structure (SMILES) | Kd [1, 5] | Kd ([1]; ternary, individual replicates) | alpha [1] | Caco-2 Pab (Caco-2 cell monolayer; Caco-2) | Caco-2 Pab (Caco-2 cell monolayer; Caco-2, a to b) | cooperativity α (SMARCA2BD) [2] | cooperativity α (PBRM1BD) (PBRM1BD5 [3]) | EC50 (PBRM1BD5 [4]) | Solubility pH 4.5 (Solubility testing; pH 4.5) | Solubility pH 6.8 (Solubility testing; pH 6.8) | Caco-2 Efflux ratio (Caco-2 cell monolayer; Caco-2) | further results
1 | Cc1ncsc1-c1ccc([C@H](CCCCN2CCC(c3ccc4c(c3)n(C3CCCC3)c3nc(=O)c5c(Br)cccc5n43)CC2)NC(=O)[C@@H]2C[C@@H](O)CN2C(=O)[C@@H](NC(=O)C2(F)CC2)C(C)(C)C)cc1 [compound 25] | 36 ± 15 nM | 22.7 nM and 51.6 nM and 32.9 nM | 0.2 | <4 10-6 cm/s | <4.3e-06 cm/s | 2.2 ± 0.6 | 11.2 ± 2.1 | 3 ± 1 nM | <1.000 ug/mL | <1.000 ug/mL | – | –
2 | Cc1ncsc1-c1ccc([C@H](CCCCCN2CCC(c3ccc4c(c3)n(C3CCCC3)c3nc(=O)c5c(Br)cccc5n43)CC2)NC(=O)[C@@H]2C[C@@H](O)CN2C(=O)[C@@H](NC(=O)C2(F)CC2)C(C)(C)C)cc1 [compound 11] | 37 ± 12 nM | 45.4 nM and 28.1 nM | 0.3 | – | – | 5.3 ± 2.1 | 11.9 ± 1.3 | 4 ± 1 nM | – | – | – | Caco-2 permeability (Caco-2 cell monolayer): improved permeability; efflux ratio (Caco-2 cell monolayer; Caco-2): high efflux ratio; Modified Caco-2 + PGPi (Zosuquidar) Pab (Caco-2 cell monolayer; Modified Caco-2 + PGPi (Zosuquidar)): 11 ± 3 10-6 cm/s; Modified Caco-2 Pab + PGPi (Zosuquidar) (Caco-2 cell monolayer; [6]): 12 ×10⁻⁶ cm/s and 16 ×10⁻⁶ cm/s and 9 ×10⁻⁶ cm/s and 8.7 ×10⁻⁶ cm/s; Modified Caco-2 Pba + PGPi (Zosuquidar) (Caco-2 cell monolayer; Modified Caco-2, b to a, + PGPi (Zosuquidar)): 19 ×10⁻⁶ cm/s; solubility (Solubility testing): moderate solubility; solubility at 24 h (Solubility testing; pH 4.5, aqueous buffer, pH 4.5, read-out: Solubility pH 4.5): < 1 µg/mL; solubility at 24 h (Solubility testing; pH 6.8, aqueous buffer, pH 6.8, read-out: Solubility pH 6.8): < 1 µg/mL
3 | Cc1ncsc1-c1ccc(CNC(=O)[C@@H]2C[C@@H](O)CN2C(=O)[C@@H](NC(=O)C2(F)CC2)C(C)(C)C)c(OCCCCN2CCC(c3ccc4c(c3)n(C3CCCC3)c3nc(=O)c5c(Br)cccc5n43)CC2)c1 [compound 23] | 120 ± 8 nM | 116 nM (2×) and 129 nM | 0.1 | 0.4 10-6 cm/s | 4.01e-07 cm/s | 0.7 ± 0.3 | 2.0 ± 0.4 | 21 ± 3 nM | <1.000 ug/mL | <1.000 ug/mL | 26.136 and 26 | –
4 | Cc1ncsc1-c1ccc([C@H](CCC(C)(C)CCN2CCC(c3ccc4c(c3)n(C3CCCC3)c3nc(=O)c5c(Br)cccc5n43)CC2)NC(=O)[C@@H]2C[C@@H](O)CN2C(=O)[C@@H](NC(=O)C2(F)CC2)C(C)(C)C)cc1 [compound 30] | 86 ± 22 nM | 66.1 nM and 109 nM and 81.8 nM | 0.3 | <0.3 10-6 cm/s | – | 5.9 ± 1.9 | 22.4 ± 3.9 | 6 ± 2 nM | <1.000 ug/mL | <1.000 ug/mL | 9.412 No peak area | Modified Caco-2 Efflux ratio (Caco-2 cell monolayer; Modified Caco-2): 7.333 and 12.000 and 10 ± 3; Modified Caco-2 Pab (Caco-2 cell monolayer; Modified Caco-2, a to b): 4.5 ×10⁻⁶ cm/s and 2.5 ×10⁻⁶ cm/s; Modified Caco-2 Pab + PGPi (Zosuquidar) (Caco-2 cell monolayer; [6]): 7.2 ×10⁻⁶ cm/s and 8.4 ×10⁻⁶ cm/s
5 | Cc1ncsc1-c1ccc([C@H](COCCCN2CCC(c3ccc4c(c3)n(C3CCCC3)c3nc(=O)c5c(Br)cccc5n43)CC2)NC(=O)[C@@H]2C[C@@H](O)CN2C(=O)[C@@H](NC(=O)C2(F)CC2)C(C)(C)C)cc1 [compound 27] | 26 nM | 26.7 nM and 25.9 nM and 26.4 nM | 0.5 | 5 10-6 cm/s | – | 3.3 ± 0.8 | 12.2 ± 2.8 | 3 ± 0.5 nM | <1.000 <1.000 ug/mL | <1.000 <1.000 ug/mL | 4.167 and 4 | –
6 | Cc1ncsc1-c1ccc(CNC(=O)[C@@H]2C[C@@H](O)CN2C(=O)[C@@H](NC(=O)C2(F)CC2)C(C)(C)C)c(OCCOCCOCCN2CCC(c3ccc4c(c3)n(C3CCCC3)c3nc(=O)c5c(Br)cccc5n43)CC2)c1 [compound 21] | 58 ± 8 nM | 49 nM and 65.4 nM and 58.3 nM | 0.4 | <0.3 10-6 cm/s | <2.83e-07 cm/s | 1.9 ± 0.1 | 2.0 ± 0.1 | 38 ± 4 nM | 200.000 ug/mL and 180.000 ug/mL and 190.000 ug/mL | – | – | –
7 | Cc1ncsc1-c1ccc(CNC(=O)[C@@H]2C[C@@H](O)CN2C(=O)[C@@H](NC(=O)C2(F)CC2)C(C)(C)C)c(OCCN2CCC(c3ccc4c(c3)n(C3CCCC3)c3nc(=O)c5c(Br)cccc5n43)CC2)c1 [compound 20] | 97 ± 10 nM | 89.5 nM and 108 nM and 91.8 nM | 0.1 | <0.4 10-6 cm/s | <4.04e-07 cm/s | 0.6 ± 0.2 | 1.1 ± 0.1 | 35 ± 4 nM | <1.000 <1.000 <1.000 <1.000 <1.000 ug/mL | <1.000 <1.000 <1.000 <1.000 <1.000 ug/mL | – | –
8 | Cc1ncsc1-c1ccc([C@H](CC[C@@H](C)CCN2CCC(c3ccc4c(c3)n(C3CCCC3)c3nc(=O)c5c(Br)cccc5n43)CC2)NC(=O)[C@@H]2C[C@@H](O)CN2C(=O)[C@@H](NC(=O)C2(F)CC2)C(C)(C)C)cc1 [compound 29] | 20 ± 4 nM | 15.6 nM and 23 nM and 21.9 nM | 0.6 | 2 ± 0.2 10-6 cm/s | 1.9e-06 cm/s and < 1.9e-06 cm/s and 2.4e-06 cm/s | 6.4 ± 1.1 | 24.9 ± 2.4 | 3 ± 1 nM | <1.000 <1.000 ug/mL | <1.000 <1.000 ug/mL | – | –
